According to BindingDB's records for doi:10.1016/j.bioorg.2015.08.001 (Universiti Teknologi Mara (Uitm), 2015):

Biological target: Carbonic anhydrase 2 (Bos taurus, UniProt P00921)
Experiment: Carbonic Anhydrase (CA) II Inhibition Assay
Settings: pH 7.2
Procedure: This was assay performed using buffer containing Tris and HEPES at the pH of 7.2-7.9 and a total concentration of 20 mM. 96-well plates were filled with 140 µL of Tris-HEPES solution, 20 µL of bovine erythrocyte carbonic anhydrase II solution (0.1-0.2 mg/2000 mL), and 20 µL of 0.7 mM para-nitrophenyl acetate (diluted in ethanol). Test compounds were incubated at 25-28 °C for 15 min prior to addition of para-nitrophenyl acetate, which starts the reaction. The reaction was allowed to take place for 30 min at 25-28 °C. All compounds tested in triplicate at different concentration. Amount of product that forms during the reaction monitored at 400 nm after 30 min.

Chain of Carbonic anhydrase 2 (P00921 whole entry): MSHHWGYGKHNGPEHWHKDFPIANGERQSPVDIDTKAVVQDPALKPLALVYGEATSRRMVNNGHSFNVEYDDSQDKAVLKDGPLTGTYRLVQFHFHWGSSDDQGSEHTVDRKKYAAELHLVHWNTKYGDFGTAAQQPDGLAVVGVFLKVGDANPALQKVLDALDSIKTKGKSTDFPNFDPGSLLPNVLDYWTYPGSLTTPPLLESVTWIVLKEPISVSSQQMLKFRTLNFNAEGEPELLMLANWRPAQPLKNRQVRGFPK

Compound	IC50 [µM]
S=C(Nc1ccc(C(c2c[nH]c3ccc(Br)cc23)c2c[nH]c3ccc(Br)cc23)cc1)Nc1cccc(Br)c1 [Name not given]	30.1
S=C(Nc1ccc(C(c2c[nH]c3ccccc23)c2c[nH]c3ccccc23)cc1)Nc1cccc(Cl)c1 [Name not given]	112
Cc1cccc2c(C(c3ccc(NC(=S)Nc4ccc([N+](=O)[O-])cc4)cc3)c3c[nH]c4c(C)cccc34)c[nH]c12 [1-(4-(Bis(7-methyl-1H-indol-3-yl)methyl)phenyl)-3-(4-nitrophenyl)thiourea (3u)]	44.1
O=[N+]([O-])c1ccc(NC(=S)Nc2cccc(C(c3c[nH]c4ccccc34)c3c[nH]c4ccccc34)c2)cc1 [1-(4-Nitrophenyl)-3-(3-(di(1H-indol-3-yl)methyl)phenyl)thiourea (4d)]	32.9
O=[N+]([O-])c1ccc(NC(=S)Nc2ccc(C(c3c[nH]c4ccc(Cl)cc34)c3c[nH]c4ccc(Cl)cc34)cc2)cc1 [Name not given]	39.7
S=C(Nc1ccc(C(c2c[nH]c3ccccc23)c2c[nH]c3ccccc23)cc1)Nc1cccc(Br)c1	131
CCOC(=O)NC(=S)Nc1ccc(C(c2c[nH]c3ccc(Cl)cc23)c2c[nH]c3ccc(Cl)cc23)cc1 [Name not given]	137
S=C(Nc1ccc(C(c2c[nH]c3ccccc23)c2c[nH]c3ccccc23)cc1)Nc1cc(Cl)ccc1Cl [Name not given]	68.3
S=C(Nc1ccc(C(c2c[nH]c3ccc(Br)cc23)c2c[nH]c3ccc(Br)cc23)cc1)Nc1cc(Cl)ccc1Cl [Name not given]	33
S=C(Nc1ccc(C(c2c[nH]c3ccc(Br)cc23)c2c[nH]c3ccc(Br)cc23)cc1)Nc1cccc(Cl)c1 [Name not given]	42.9

Next, values leading:

IC50 [µM]	Compound
70.4	CCOC(=O)NC(=S)Nc1ccc(C(c2c[nH]c3ccc(Br)cc23)c2c[nH]c3ccc(Br)cc23)cc1 [Name not given]
32.3	O=[N+]([O-])c1ccc(NC(=S)Nc2ccc(C(c3c[nH]c4ccc(Br)cc34)c3c[nH]c4ccc(Br)cc34)cc2)cc1 [Name not given]
54.4	S=C(Nc1ccc(C(c2c[nH]c3ccc(Cl)cc23)c2c[nH]c3ccc(Cl)cc23)cc1)Nc1cccc(Cl)c1 [Name not given]
139	S=C(Nc1ccc(C(c2c[nH]c3ccc(Cl)cc23)c2c[nH]c3ccc(Cl)cc23)cc1)Nc1cc(Cl)ccc1Cl [Name not given]
45.9	O=[N+]([O-])c1ccc(NC(=S)Nc2ccc(C(c3c[nH]c4ccccc34)c3c[nH]c4ccccc34)cc2)cc1 [Name not given]
